Reference: patent publication US20190380999A1, “COMBINATIONS OF GENISTEIN AND BISPHOSPHONATES” (Primus Pharmaceuticals, Inc., priority 2018, published 2019)

How the values were obtained:
Format in all cases: cell-based, mouse
RAW267.4 cells [1] = assay: Cell death of confluent RAW267.4 cells (cell count after additional 2 days culture); conditions: single agent 0.1, 1.0, 10 and 100 μM, FIGS. 2A and B
Protocol: RAW267.4 cells were cultured for 3 days in Dulbecco's modification of Eagle's medium, and then the cells were additionally cultured for 2 days in the presence or absence of (A) alendronate, (B) genistein or alendronate plus genistein. After culture, the number of attached cells on the dish was counted.
RAW267.4 cells (1×10^5/ml cells/well; 2 ml medium added per well in 24-well plates) were cultured in DMEM containing 10% FBS and 1% P/S for 3 days when confluence was reached (24). The cells were then cultured for an additional 2 days in the presence or absence of alendronate (0.1, 1, 10 or 100 μM), genistein (0.1, 1, 10 or 100 μM), or alendronate (0.1, 1, 10 or 100 μM) plus genistein (0.1, 1, 10 or 100 μM). After culture, cells were detached from each culture dish and counted as described for the cell proliferation assay.

RAW267.4 cells [2] = assay: Cell proliferation of RAW267.4 cells (attached cell count after 3 days culture); conditions: single agent 0.1, 1.0, 10 and 100 μM, control 0.1% ethanol vehicle, FIGS. 1A and B
Protocol: RAW267.4 cells were cultured for 3 days in Dulbecco's modification of Eagle's medium containing vehicle (0.1% ethanol), (A) alendronate, (B) genistein or (C) alendronate plus genistein. After culture, the number of attached cells on the dish was counted. Data are presented as the mean±standard deviation of two replicate wells per data set using different dishes and cell preparation. *P<0.001 vs. control group (grey bar) as determined by one-way analysis of variance and Tukey-Kramer post hoc test.
RAW267.4 cells (1×10^5/ml cells/well; 2 ml medium added per well in 24-well plates) were cultured in DMEM containing 10% FBS and 1% P/S for 3 days in a water-saturated atmosphere containing 5% CO2 and 95% air at 37° C. (23). The cells were cultured in the presence or absence of vehicle (ethanol; final concentration 0.1%), alendronate (0.1, 1, 10 or 100 μM), genistein (0.1, 1, 10 or 100 μM), or alendronate (0.1, 1, 10 or 100 μM) plus genistein (0.1, 1, 10, or 100 After culture, cells were detached from each culture dish and counted. Following trypsinization of each of culture dish using 0.2% trpysin plus 0.02% EDTA in Ca^2+/Mg^2+-free PBS for 2 min at 37° C., cells detached from the dish were collected following centrifugation at 150×g (4° C.) for 5 min (23). Cells were resuspended in PBS solution and stained with eosin. […] For each dish, the average of two counts was calculated. […]

RAW264.7 cells = assay: Osteoclastogenesis assay, RANKL-induced, TRAP staining (TRAP-positive multinucleated cells); conditions: RANKL 30 ng/ml, 6 days; for effect on RANKL-induced osteoclastic differentiation (TRAP+ multinucleated cells): FIG. 3A; for effect on RANKL-stimulated osteoclastic differentiation (TRAP+ multinucleated cells): FIG. 3B
Protocol: Cells were cultured for 6 days with RANKL (30 ng/ml) pre-incubated for 10 min with crosslinking anti-poly-histidine antibody (2.5 μg/ml) in the presence or absence of vehicle (0.1% ethanol), (A) alendronate, (B) genistein or (C) alendronate plus genistein. After 6 days of culture, the cells were fixed and stained for TRAP.
RAW264.7 cells were cultured in 96-well plates in DMEM supplemented with 10% FBS and 1% P/S at a density of 1×10^4 cells/well. Cells were cultured for 6 days with RANKL (30 ng/ml) pre-incubated for 10 min with crosslinking anti-poly-histidine antibody (2.5 μg/ml; IC050P; R&D Systems, Inc., Minneapolis, Minn., USA) to induce osteoclast formation (21,22), in the presence or absence of vehicle (ethanol; final concentration 0.1%), alendronate (0.1, 1, 10 or 100 μM), genistein (0.1, 1, 10 or 100 μM), or alendronate (0.1, 1, 10 or 100 μM) plus genistein (0.1, 1, 10 or 100 μM). After 6 days of culture, the cells were fixed and stained for TRAP, a specific marker of the osteoclast phenotype, using a leukocyte acid phosphatase kit. […] TRAP-positive multinucleated cells (MNCs with at least three nuclei) were considered to be osteoclast-like cells, and the cells were counted using light microscopy (Olympus MTV-3). MNC scores are expressed as the mean±standard deviation of six cultures with two replicate wells per data set using different dishes and cell preparation.

Row | Structure (SMILES) | alteration in the number of RAW267.4 cells (cell death) (RAW267.4 cells [1]) | effect on the proliferation of RAW267.4 cells (number of attached cells) vs control (RAW267.4 cells [2]) | effect on RANKL-induced osteoclastic differentiation (TRAP+ multinucleated cells) (RAW264.7 cells; alendronate alone 100 μM) | effect on RANKL-induced osteoclastic differentiation (TRAP+ multinucleated cells) (RAW264.7 cells; alendronate alone 0.1, 1.0 and 10 μM) | effect on RANKL-stimulated osteoclastic differentiation (TRAP+ multinucleated cells) (RAW264.7 cells; genistein alone 0.1 and 1.0 μM) | effect on RANKL-stimulated osteoclastic differentiation (TRAP+ multinucleated cells) (RAW264.7 cells; genistein alone 10 and 100 μM)
1 | NCCCC(O)(P(=O)(O)O)P(=O)(O)O [alendronate] | did not cause a significant alteration | did not have a significant effect | suppressed | had no significant effect |  | 
2 | O=c1c(-c2ccc(O)cc2)coc2cc(O)cc(O)c12 [genistein, 4′,5,7-trihydroxyisoflavone] | did not cause a significant alteration | did not have a significant effect |  |  | did not reveal an effect | suppressed
